# Measured values reported in patent US6737407B1, “Treatment of obesity” (Metabolic Pharmaceuticals, Ltd., priority 1997, dated 2004).
# Where no end group is shown, it is not given here.
# Key:
# [1] = tested on: adipose tissue of the C57BL/6J (ob/ob) mice; experiment: Ex vivo lipolysis in adipose tissue of treated ob/ob mice (glycerol release); parameters: species or system mouse; conditions: both sexes, ob/ob mice after 18-day treatment
# Method: FIGS. 6A & 6B depict the ex vivo effect on lipolysis in adipose tissue of the C57BL/6J (ob/ob) male mice (6A) and female mice (6B) after 18-days treatment with hGH 177-191. […] Values are mean±SEM of 12 determinations from 6 animals of each group. The differences between the hGH 177-191 treated and saline control groups were statistically significant.
# Adipose tissues were removed from animals and sliced into segments of approximately 200 mg each. Then the tissues were pre-incubated in 25 ml vials containing 2 ml of Krebs-Ringerbicarbonate (KRB) buffer, 4% defatted BSA and 5.5 mM glucose under an atmosphere of carbogen (95%O2/ 5%CO2) at 37° C. for 1 hour. Tissues were then transferred to another vials with fresh medium and the incubation was initiated by adding hGH 177-191 peptide or analogues into the vials. The mixtures were then incubated at 37° C. for 90 minutes. After incubation, the tissues wee removed and aliquots (200 μl) of samples withdrawn from the medium were assayed for the contents of glycerol or free fatty acid (FFA) either by the enzyme assay (glycerol kinase) or calorimetric (copper-dye) spectrometry. The NADH or color produced was then monitored by the absorption at 340 nm and 610 nm, respectively.
# [2] = tested on: Zucker fatty (fa/fa) rats; experiment: Chronic treatment of Zucker fatty rats: body weight gain and food consumption; assay type: in vivo, rat; conditions: throughout the treatment period
# Method: Animals were given a daily intraperitoneal injection of either saline or the peptide (500 μg/kg body weight) (3A) or implanted intradermally with a slow-release tablet (500 μg/day/kg body weight) in the lower quadrant of the abdomen of the animals. The control group was implanted with a placebo tablet in the same manner. Each point represents the mean±SEM of 6 animals.
# The treatment for the four groups of animals was as described in FIGS. 3A & 3B. Each point represents the mean±SEM of 6 animals.
# The animals of the same age and same sex were randomly divided into two groups, housed 6 per cage and maintained on a normal 12-hr light/dark cycle at a constant room temperature of 25° C. in the animal house of the Department of Biochemistry and—Molecular Biology, Monash University, Clayton, Australia. Animals were fed ad libitum on pre-determined quantity of animal pellets (Clark King, Melboume, Australia) and allowed free access to water at all times. […] The body weight and food intake were monitored for the periods of time as indicated.
# Cumulative weight gain and food consumption were determined at 3-day intervals by the measurements of body weight and uneaten food remaining in the cages. […]
# [3] = tested on: Human Abdominal adipose Tissue; experiment: Antilipogenic activity in human abdominal adipose tissue; assay type: cell-based; conditions: 0.1 μM peptide; BSA + insulin
# Method: The rate of the incorporation of exogenous [C^14]-glucose into total lipid in adipose tissue was measured as the index of anti-lipogenic activity of hGH 177-191.
# Adipose tissues were sliced into segments of approximately 200 mg each and then placed in Krebs-Ringer bicarbonate (KRB) buffer (pH 7.4) containing 2% defatted BSA, and glucose (0.1 mg/ml) and gassed with 95% O2-5% CO2 at 37° C. After 1 hr preincubation, the tissues were transferred to another 2 ml of fresh media containing [C^14]-glucose (final specific activity 0.05 μCi/μmol), […] of insulin (0.1 mU/ml) for a further 90 min incubation (conditions as above). Then the tissues were removed, washed thoroughly with KRB buffer and lipid was extracted with 5 ml of chlorofom/methanol (2:1, v/v) The extraction solution was washed with 2 ml of MeOH-H2O solution containing 0.1% MgCl2. A 2.5 ml aliquot of the washed extraction solution was taken and transferred to scintillation vials. The [C^14] radioactivity was measured with a liquid scintillation counter. The rates of total lipid synthesis were expressed as μmol [C^14]-glucose incorporated into lipid/g tissue/hr.
# Tables 6 and 7 show the in vitro antilipogenic and lipolytic activity of hGH 177-191 and two representative analogues (Ref Nos. 9604 and 9605) on human adipose tissue.
sequence,measurement,setting,value
LRIVQCRSVEGSCGF (cysteine pairing not given here) [Ref No. 9401],lipolytic activity in adipose tissues of treated animals (in words),[1],increase significantly
same,food consumption (in words),[2],unchanged
same,14C incorporation,[3],40 ± 3 Av DPM/mg tissue/hour
